Patent publication US20210317134A1, “UBIQUITIN-SPECIFIC-PROCESSING PROTEASE 7 (USP7) MODULATORS AND USES THEREOF” (RAPT THERAPEUTICS, INC., priority 2019, published 2021)

Biological target: USP7 (Homo sapiens, UniProt Q93009)
Test: USP7 inhibitory potency (Table 1)
Assay type: biochemical

Sequence of USP7 (Q93009 whole entry): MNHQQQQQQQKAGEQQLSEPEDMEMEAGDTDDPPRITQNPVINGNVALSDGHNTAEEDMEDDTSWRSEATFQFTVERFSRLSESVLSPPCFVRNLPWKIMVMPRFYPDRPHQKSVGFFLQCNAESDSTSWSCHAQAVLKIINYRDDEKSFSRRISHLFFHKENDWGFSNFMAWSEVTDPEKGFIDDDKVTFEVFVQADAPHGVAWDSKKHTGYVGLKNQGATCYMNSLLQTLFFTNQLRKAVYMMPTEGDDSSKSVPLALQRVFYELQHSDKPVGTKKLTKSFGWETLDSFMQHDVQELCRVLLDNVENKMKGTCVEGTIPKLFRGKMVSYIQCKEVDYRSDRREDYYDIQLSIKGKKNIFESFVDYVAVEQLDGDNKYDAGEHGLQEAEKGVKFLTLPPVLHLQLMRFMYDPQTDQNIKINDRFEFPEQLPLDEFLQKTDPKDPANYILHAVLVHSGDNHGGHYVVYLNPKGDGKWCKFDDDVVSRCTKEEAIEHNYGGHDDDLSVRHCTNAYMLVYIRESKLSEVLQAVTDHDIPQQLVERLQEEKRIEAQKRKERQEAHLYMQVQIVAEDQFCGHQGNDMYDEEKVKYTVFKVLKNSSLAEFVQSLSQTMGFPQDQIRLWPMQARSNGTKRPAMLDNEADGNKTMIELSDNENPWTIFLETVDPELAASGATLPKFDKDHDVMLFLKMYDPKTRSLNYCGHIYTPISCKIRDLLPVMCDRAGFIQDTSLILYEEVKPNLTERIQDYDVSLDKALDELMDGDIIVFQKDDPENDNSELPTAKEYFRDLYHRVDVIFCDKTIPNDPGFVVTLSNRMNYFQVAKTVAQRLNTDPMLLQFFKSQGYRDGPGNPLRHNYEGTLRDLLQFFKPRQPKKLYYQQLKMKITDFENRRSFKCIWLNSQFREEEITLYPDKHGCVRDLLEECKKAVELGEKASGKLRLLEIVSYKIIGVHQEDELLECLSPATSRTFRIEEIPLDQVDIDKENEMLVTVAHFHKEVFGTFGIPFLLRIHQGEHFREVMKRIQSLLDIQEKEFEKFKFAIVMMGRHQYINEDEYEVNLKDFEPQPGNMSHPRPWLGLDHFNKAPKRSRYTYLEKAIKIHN

Compound | IC50 [µM]
C[C@@H](c1cc2nccc(-c3cc(Cl)cc4c3O[C@@H](C(=O)N3CCNCC3)C4)c2s1)N1C(=O)CCC1=O [1-((S)-1-(7-((R)-5-chloro-2-(piperazine-1-carbonyl)-2,3-dihydrobenzofuran-7-yl)thieno[3,2-b]pyridin-2-yl)ethyl)pyrrolidine-2,5-dione] | < 1
CC(C)(O)C1Cc2nccc(-c3cc(Cl)cc4c3O[C@@H](c3onc5c3CNCC5)C4)c2C1 (stereo partly drawn) [2-(4-((R)-5-chloro-2-(4,5,6,7-tetrahydroisoxazolo[4,3-c]pyridin-3-yl)-2,3-dihydrobenzofuran-7-yl)-6,7-dihydro-5H-cyclopenta[b]pyridin-6-yl)propan-2-ol] | 1 to 10
CCC(O)(C(=O)N(C)C)c1cc2nccc(-c3cc(Cl)cc4c3O[C@@H](C(=O)N3CCNCC3)C4)c2s1 (stereo partly drawn) [2-(7-((R)-5-chloro-2-(piperazine-1-carbonyl)-2,3-dihydrobenzofuran-7-yl)thieno[3,2-b]pyridin-2-yl)-2-hydroxy-N,N-dimethylbutanamide] | < 1
CCC(O)(CC)C1Cc2nccc(-c3cc(Cl)cc4c3O[C@@H](c3onc5c3CNCC5)C4)c2C1 (stereo partly drawn) [3-(4-((R)-5-chloro-2-(4,5,6,7-tetrahydroisoxazolo[4,3-c]pyridin-3-yl)-2,3-dihydrobenzofuran-7-yl)-6,7-dihydro-5H-cyclopenta[b]pyridin-6-yl)pentan-3-ol] | 1 to 10
Clc1cc2c(c(-c3ccnc4[nH]ccc34)c1)OC(c1n[nH]c3c1CNCC3)C2 (stereo not drawn) [3-(5-chloro-7-(1H-pyrrolo[2,3-b]pyridin-4-yl)-2,3-dihydrobenzofuran-2-yl)-4,5,6,7-tetrahydro-1H-pyrazolo[4,3-c]pyridine] | 1 to 10
Clc1cc2c(c(-c3ccnc4[nH]ccc34)c1)OC(c1onc3c1CCNC3)C2 (stereo not drawn) [3-(5-chloro-7-(1H-pyrrolo[2,3-b]pyridin-4-yl)-2,3-dihydrobenzofuran-2-yl)-4,5,6,7-tetrahydroisoxazolo[3,4-c]pyridine] | 1 to 10
Clc1cc2c(c(-c3ccnc4[nH]ccc34)c1)OC(c1onc3c1CNCC3)C2 (stereo not drawn) [3-(5-chloro-7-(1H-pyrrolo[2,3-b]pyridin-4-yl)-2,3-dihydrobenzofuran-2-yl)-4,5,6,7-tetrahydroisoxazolo[4,3-c]pyridine] | < 1
Clc1cc2c(c(-c3ccnc4ccnn34)c1)OC(c1onc3c1CNCC3)C2 (stereo not drawn) [3-(5-chloro-7-(pyrazolo[1,5-a]pyrimidin-7-yl)-2,3-dihydrobenzofuran-2-yl)-4,5,6,7-tetrahydroisoxazolo[4,3-c]pyridine] | 1 to 10
Clc1cc2c(c(-c3ccncc3)c1)OC(c1onc3c1CNCC3)C2 (stereo not drawn) [3-(5-chloro-7-(pyridin-4-yl)-2,3-dihydrobenzofuran-2-yl)-4,5,6,7-tetrahydroisoxazolo[4,3-c]pyridine] | 1 to 10
N#CCC(O)c1cc2nccc(-c3cc(Cl)cc4c3O[C@@H](C(=O)N3CCNCC3)C4)c2s1 (stereo partly drawn) [3-(7-((R)-5-chloro-2-(piperazine-1-carbonyl)-2,3-dihydrobenzofuran-7-yl)thieno[3,2-b]pyridin-2-yl)-3-hydroxypropanenitrile] | < 1
CCC(OC)c1cc2nccc(-c3cc(Cl)cc4c3O[C@@H](c3onc5c3CNCC5)C4)c2s1 (stereo partly drawn) [3-((2R)-5-chloro-7-(2-(1-methoxypropyl)thieno[3,2-b]pyridin-7-yl)-2,3-dihydrobenzofuran-2-yl)-4,5,6,7-tetrahydroisoxazolo[4,3-c]pyridine] | < 1
O=C(C1Cc2cc(Cl)cc(-c3ccnc(Cn4cnc5ccccc5c4=O)c3)c2O1)N1CCNCC1 (stereo not drawn) [3-((4-(5-chloro-2-(piperazine-1-carbonyl)-2,3-dihydrobenzofuran-7-yl)pyridin-2-yl)methyl)quinazolin-4(3H)-one] | 10 to 30
OCC(O)(CCl)c1cc2nccc(-c3cc(Cl)cc4c3O[C@@H](c3onc5c3CNCC5)C4)c2s1 (stereo partly drawn) [3-chloro-2-(7-((R)-5-chloro-2-(4,5,6,7-tetrahydroisoxazolo[4,3-c]pyridin-3-yl)-2,3-dihydrobenzofuran-7-yl)thieno[3,2-b]pyridin-2-yl)propane-1,2-diol] | < 1
CNC(=O)c1cc2c(-c3cc(Cl)cc4c3OC(C(=O)N3CCNCC3)C4)ccnc2[nH]1 (stereo not drawn) [4-(5-Chloro-2-(piperazine-1-carbonyl)-2,3-dihydrobenzofuran-7-yl)-N-methyl-1H-pyrrolo[2,3-b]pyridine-2-carboxamide] | 10 to 30
NC(=O)c1c[nH]c2nccc(-c3cc(Cl)cc4c3OC(C(=O)N3CCNCC3)C4)c12 (stereo not drawn) [4-(5-chloro-2-(piperazine-1-carbonyl)-2,3-dihydrobenzofuran-7-yl)-1H-pyrrolo[2,3-b]pyridine-3-carboxamide] | 1 to 10
O=C(Nc1ccc(F)cc1)c1cc2c(-c3cc(Cl)cc4c3OC(C(=O)N3CCNCC3)C4)ccnc2[nH]1 (stereo not drawn) [4-(5-chloro-2-(piperazine-1-carbonyl)-2,3-dihydrobenzofuran-7-yl)-N-(4-fluorophenyl)-1H-pyrrolo[2,3-b]pyridine-2-carboxamide] | 1 to 10
CNC(=O)c1ccc2c(-c3cc(Cl)cc4c3OC(C(=O)N3CCNCC3)C4)ccnc2c1 (stereo not drawn) [4-(5-chloro-2-(piperazine-1-carbonyl)-2,3-dihydrobenzofuran-7-yl)-N-methylquinoline-7-carboxamide] | 1 to 10

Compound | IC50 [µM]
N#Cc1ccc2nccc(-c3cc(Cl)cc4c3OC(C(=O)N3CCNCC3)C4)c2c1 (stereo not drawn) [4-(5-chloro-2-(piperazine-1-carbonyl)-2,3-dihydrobenzofuran-7-yl)quinoline-6-carbonitrile] | 10 to 30
N#Cc1ccc2c(-c3cc(Cl)cc4c3OC(C(=O)N3CCNCC3)C4)ccnc2c1 (stereo not drawn) [4-(5-chloro-2-(piperazine-1-carbonyl)-2,3-dihydrobenzofuran-7-yl)quinoline-7-carbonitrile] | < 1
NC(=O)C1Cc2nccc(-c3cc(Cl)cc4c3O[C@@H](c3onc5c3CNCC5)C4)c2C1 (stereo partly drawn) [4-((R)-5-chloro-2-(4,5,6,7-tetrahydroisoxazolo[4,3-c]pyridin-3-yl)-2,3-dihydrobenzofuran-7-yl)-6,7-dihydro-5H-cyclopenta[b]pyridine-6-carboxamide] | 1 to 10
CN(C)C(=O)C1Cc2nccc(-c3cc(Cl)cc4c3O[C@@H](c3onc5c3CNCC5)C4)c2C1 (stereo partly drawn) [4-((R)-5-chloro-2-(4,5,6,7-tetrahydroisoxazolo[4,3-c]pyridin-3-yl)-2,3-dihydrobenzofuran-7-yl)-N,N-dimethyl-6,7-dihydro-5H-cyclopenta[b]pyridine-6-carboxamide] | 1 to 10
CNC(=O)C1Cc2nccc(-c3cc(Cl)cc4c3O[C@@H](c3onc5c3CNCC5)C4)c2C1 (stereo partly drawn) [4-((R)-5-chloro-2-(4,5,6,7-tetrahydroisoxazolo[4,3-c]pyridin-3-yl)-2,3-dihydrobenzofuran-7-yl)-N-methyl-6,7-dihydro-5H-cyclopenta[b]pyridine-6-carboxamide] | 1 to 10
O=C1CCC(c2cc3nccc(-c4cc(Cl)cc5c4O[C@@H](c4onc6c4CNCC6)C5)c3s2)N1 (stereo partly drawn) [5-(7-((R)-5-chloro-2-(4,5,6,7-tetrahydroisoxazolo[4,3-c]pyridin-3-yl)-2,3-dihydrobenzofuran-7-yl)thieno[3,2-b]pyridin-2-yl)pyrrolidin-2-one] | 1 to 10
O=C1NC(=O)C(c2cc3nccc(-c4cc(Cl)cc5c4O[C@@H](C(=O)N4CCNCC4)C5)c3s2)N1 (stereo partly drawn) [5-(7-((R)-5-chloro-2-(piperazine-1-carbonyl)-2,3-dihydrobenzofuran-7-yl)thieno[3,2-b]pyridin-2-yl)imidazolidine-2,4-dione] | < 1
O=C(N[C@@H]1CCCNC1)C1Cc2cc(Cl)cc(-c3ccnc4[nH]ccc34)c2O1 (stereo partly drawn) [5-Chloro-N-((R)-piperidin-3-yl)-7-(1H-pyrrolo[2,3-b]pyridin-4-yl)-2,3-dihydrobenzofuran-2-carboxamide] | 1 to 10
C[C@@H]1C[C@H](NC(=O)C2Cc3cc(Cl)cc(-c4ccnc5[nH]ccc45)c3O2)CCN1 (stereo partly drawn) [5-chloro-N-((2R,4R)-2-methylpiperidin-4-yl)-7-(1H-pyrrolo[2,3-b]pyridin-4-yl)-2,3-dihydrobenzofuran-2-carboxamide] | 1 to 10
C[C@H]1C[C@H](NC(=O)C2Cc3cc(Cl)cc(-c4ccnc5[nH]ccc45)c3O2)CCN1 (stereo partly drawn) [5-chloro-N-((2S,4R)-2-methylpiperidin-4-yl)-7-(1H-pyrrolo[2,3-b]pyridin-4-yl)-2,3-dihydrobenzofuran-2-carboxamide] | 1 to 10
NC(=O)c1cc2nccc(-c3cc(Cl)cc4c3OC(C(=O)N3CCNCC3)C4)c2s1 (stereo not drawn) [7-(5-chloro-2-(piperazine-1-carbonyl)-2,3-dihydrobenzofuran-7-yl)thieno[3,2-b]pyridine-2-carboxamide] | 1 to 10
O=C1c2ccccc2C2(c3cc4ncnc(-c5cc(Cl)cc6c5O[C@@H](c5onc7c5CNCC7)C6)c4s3)OCCN12 (stereo partly drawn) [9b-(4-((R)-5-chloro-2-(4,5,6,7-tetrahydroisoxazolo[4,3-c]pyridin-3-yl)-2,3-dihydrobenzofuran-7-yl)thieno[3,2-d]pyrimidin-6-yl)-2,3-dihydrooxazolo[2,3-a]isoindol-5(9bH)-one] | 10 to 30
C=CCC1(C(=O)N2CCNCC2)Cc2cc(Cl)cc(-c3ccnc4[nH]ccc34)c2O1 (stereo not drawn) [(2-allyl-5-chloro-7-(1H-pyrrolo[2,3-b]pyridin-4-yl)-2,3-dihydrobenzofuran-2-yl)(piperazin-1-yl)methanone] | 10 to 30
O=C(C1Cc2cc(Cl)cc(-c3ccnc4[nH]ccc34)c2O1)N1CCCC(C2CNC2)C1 (stereo not drawn) [(3-(azetidin-3-yl)piperidin-1-yl)(5-chloro-7-(1H-pyrrolo[2,3-b]pyridin-4-yl)-2,3-dihydrobenzofuran-2-yl)methanone] | 10 to 30
O=C(C1Cc2cc(Cl)cc(-c3ccnc4[nH]ccc34)c2O1)N1CCC(c2cnc[nH]2)CC1 (stereo not drawn) [(4-(1H-imidazol-5-yl)piperidin-1-yl)(5-chloro-7-(1H-pyrrolo[2,3-b]pyridin-4-yl)-2,3-dihydrobenzofuran-2-yl)methanone] | 1 to 10
CCC(O)c1cc2nccc(-c3cc(Cl)cc4c3O[C@@H](C(=O)N3CCC(c5cnc[nH]5)CC3)C4)c2s1 (stereo partly drawn) [(4-(1H-imidazol-5-yl)piperidin-1-yl)((2R)-5-chloro-7-(2-(1-hydroxypropyl)thieno[3,2-b]pyridin-7-yl)-2,3-dihydrobenzofuran-2-yl)methanone] | 1 to 10
